From patent publication US12428406B2 (PMV Pharmaceuticals, Inc., priority 2019, dated 2025)

These compounds were tested against T1, p53 Y220C (Homo sapiens, UniProt P04637, Y220C) (assay: In vitro DNA binding activity assay (HTRF / TR-FRET): stabilization of p53 Y220C and increase of its DNA binding activity). Conditions: recombinant His-tagged p53 Y220C DNA binding domain (aa 94-312), biotin-labeled consensus DNA, incubated at 27° C. or 29° C. for 60 min.
T1 construct: The recombinant protein was a truncation mutant containing only amino acids 94-312 of p53; made in house; host or cells: E. coli
T1 sequence (P04637 94-312, change not shown): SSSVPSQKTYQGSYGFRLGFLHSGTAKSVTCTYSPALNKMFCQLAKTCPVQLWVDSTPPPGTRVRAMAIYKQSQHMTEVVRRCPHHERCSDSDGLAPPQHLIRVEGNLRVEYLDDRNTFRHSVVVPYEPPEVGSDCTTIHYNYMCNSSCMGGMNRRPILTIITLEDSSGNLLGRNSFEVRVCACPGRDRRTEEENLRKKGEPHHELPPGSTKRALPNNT
Type: biochemical
Procedure, shortened: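 Compounds from 4.5 mM DMSO stocks, 3-fold serial dilutions; room-temperature incubations of 15 and 20 min. SC150 = concentration raising DNA binding by 50% over no-compound control.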

Structure (SMILES) | SC150 (concentration of the compound required to increase the DNA binding activity by 50%)
COc1cc(C(=O)OCC(C)O)ccc1NCC#Cc1cc2c(N[C@H]3CCN(C)C[C@H]3F)cccc2n1CC(F)(F)F (mixture of isomers) [Compound 806A, rac-2-hydroxypropyl 4-{[3-(4-{[(3R,4S)-3-fluoro-1-methylpiperidin-4-yl]amino}-1-(2,2,2-trifluoroethyl)-1H-indol-2-yl)prop-2-yn-1-yl]amino}-3-methoxybenzoate] | + (+ = 0 μM ≤ SC150 < 0.05 μM)
COC[C@H](O)CN1CCC(Nc2cccc3c2cc(C#CCNc2ccc(S(C)(=O)=O)cc2OC)n3CC(F)(F)F)CC1 [Compound 611A, (2R)-1-{4-[(2-{3-[(4-methanesulfonyl-2-methoxyphenyl)amino]prop-1-yn-1-yl}-1-(2,2,2-trifluoroethyl)-1H-indol-4-yl)amino]piperidin-1-yl}-3-methoxypropan-2-ol] | + (+ = 0 μM ≤ SC150 < 0.05 μM)
COc1cc(C(N)=O)ccc1NCC#Cc1cc2c(N[C@@H]3CCNC[C@@H]3F)cccc2n1CC(F)(F)F [Compound 849A, 4-{[3-(4-{[(3S,4R)-3-fluoropiperidin-4-yl]amino}-1-(2,2,2-trifluoroethyl)-1H-indol-2-yl)prop-2-yn-1-yl]amino}-3-methoxybenzamide] | + (+ = 0 μM ≤ SC150 < 0.05 μM)
CNC(=O)c1ccc(NCC#Cc2cc3c(N[C@H]4CC[C@@H](N(C)C)CC4)cccc3n2CC(F)(F)F)c(OCCF)c1 [Compound 105A, 3-(2-fluoroethoxy)-N-methyl-4-{[3-(4-{[(1S,4S)-4-(dimethyl-amino)cyclohexyl]amino}-1-(2,2,2-trifluoro-ethyl)-1H-indol-2-yl)prop-2-yn-1-yl]amino}benzamide] | + (+ = 0 μM ≤ SC150 < 0.05 μM)
CCC(=O)NS(=O)(=O)c1ccc(NCC#Cc2cc3c(N[C@H]4CC[C@@H](N(C)C)CC4)cccc3n2CC(F)(F)F)c(OC)c1 [Compound 86A] | + (+ = 0 μM ≤ SC150 < 0.05 μM)
COc1cc(S(=O)(=O)N2CCOCC2)ccc1NCC#Cc1cc2c(NC3CCS(=O)(=O)CC3)cccc2n1CC(F)(F)F [Compound 1036A, 4-{[2-(3-{[2-methoxy-4-(morpholine-4-sulfonyl)phenyl]amino}prop-1-yn-1-yl)-1-(2,2,2-trifluoroethyl)-1H-indol-4-yl]amino}-1λ^6-thiane-1,1-dione] | + (+ = 0 μM ≤ SC150 < 0.05 μM)
CS(=O)(=O)c1ccc(NCC#Cc2cc3c(N[C@H]4CC[C@H](N5CC6(COC6)C5)CC4)cccc3n2CC(F)(F)F)c(O)c1 [Compound 214A, 5-methanesulfonyl-2-{[3-(4-{[(1R,4R)-4-{2-oxa-6-azaspiro[3.3]heptan-6-yl}cyclohexyl]amino}-1-(2,2,2-trifluoro-ethyl)-1H-indol-2-yl)prop-2-yn-1-yl]amino}phenol] | + (+ = 0 μM ≤ SC150 < 0.05 μM)
COc1cc(S(C)(=O)=O)ccc1NCC#Cc1cc2c(NC3CCC(N(C)C)CC3F)cccc2n1CC(F)(F)F (centres unmarked) [Compound 41A] | + (+ = 0 μM ≤ SC150 < 0.05 μM)
CN(C)[C@H]1CC[C@H](Nc2cccc3c2cc(C#CCNc2ccc(S(C)(=O)=O)cc2OCC#N)n3CC(F)(F)F)CC1 [Compound 81A, 2-(5-methanesulfonyl-2-{[3-(4-{[(1R,4R)-4-(dimethylamino)cyclohexyl]amino}-1-(2,2,2-trifluoro-ethyl)-1H-indol-2-yl)prop-2-yn-1-yl]amino}phenoxy)acetonitrile] | + (+ = 0 μM ≤ SC150 < 0.05 μM)
COc1ccc(S(C)(=O)=O)cc1NCC#Cc1cc2c(NC3CCN(C)CC3)cccc2n1CC(F)(F)F [Compound 495A, 2-{3-[(5-methanesulfonyl-2-methoxyphenyl)amino]prop-1-yn-1-yl}-N-(1-methylpiperidin-4-yl)-1-(2,2,2-trifluoroethyl)-1H-indol-4-amine] | +++ (+++ = 0.1 μM ≤ SC150 < 0.2 μM)
COc1cc(S(=O)(=O)NC(C)=O)ccc1NCC#Cc1cc2c(N[C@H]3CCN(C)C[C@H]3F)cccc2n1CC(F)(F)F [Compound 838A, N-(4-{[3-(4-{[(3R,4S)-3-fluoro-1-methylpiperidin-4-yl]amino}-1-(2,2,2-trifluoroethyl)-1H-indol-2-yl)prop-2-yn-1-yl]amino}-3-methoxybenzenesulfonyl)acetamide] | + (+ = 0 μM ≤ SC150 < 0.05 μM)
CNC(=O)c1ccc(NCC#Cc2cc3c(N[C@H]4CC[C@H](N5CC6(CCC6)C5)CC4)cccc3n2CC(F)(F)F)c(OC)c1 [Compound 196A, 3-methoxy-N-methyl-4-{[3-(4-{[(1R,4R)-4-{2-azaspiro[3.3]heptan-2-yl}cyclohexyl]amino}-1-(2,2,2-trifluoroethyl)-1H-indol-2-yl)prop-2-yn-1-yl]amino}benzamide] | + (+ = 0 μM ≤ SC150 < 0.05 μM)
CCOc1cc(S(C)(=O)=O)ccc1NCC#Cc1cc2c(N[C@H]3CC[C@@H](N4CC5(COC5)C4)CC3)cccc2n1CC(F)(F)F [Compound 235A, 2-{3-[(2-ethoxy-4-methanesulfonyl-phenyl)amino]prop-1-yn-1-yl}-N-[(1S,4S)-4-{2-oxa-6-azaspiro[3.3]heptan-6-yl}cyclo-hexyl]-1-(2,2,2-trifluoroethyl)-1H-indol-4-amine] | + (+ = 0 μM ≤ SC150 < 0.05 μM)
COc1cc(S(N)(=O)=O)ccc1NCC#Cc1cc2c(N[C@H]3CC[C@H](N4CCC(C(F)(F)F)CC4)CC3)cccc2n1CC(F)(F)F [Compound 440A, 3-methoxy-4-{[3-(4-{[(1R,4R)-4-[4-(trifluoromethyl)piperidin-1-yl]cyclohexyl]amino}-1-(2,2,2-trifluoroethyl)-1H-indol-2-yl)prop-2-yn-1-yl]amino}benzene-1-sulfonamide] | + (+ = 0 μM ≤ SC150 < 0.05 μM)
CNC(=O)c1ccc(NCC#Cc2cc3c(N[C@H]4CC[C@H](N5CC[S+]([O-])CC5)CC4)cccc3n2CC(F)(F)F)c(OC)c1 [Compound 369A, 3-methoxy-N-methyl-4-{[3-(4-{[(1R,4R)-4-(1-oxo-1λ^4-thiomorpholin-4-yl)cyclohexyl]amino}-1-(2,2,2-trifluoroethyl)-1H-indol-2-yl)prop-2-yn-1-yl]amino}benzamide] | + (+ = 0 μM ≤ SC150 < 0.05 μM)
CNc1cc(S(C)(=O)=O)ccc1OCC#Cc1cc2c(N[C@H]3CC[C@@H](N4CC5(COC5)C4)CC3)cccc2n1CC(F)(F)F [Compound 244A, 2-{3-[4-methanesulfonyl-2-(methylamino)phenoxy]prop-1-yn-1-yl}-N-[(1S,4S)-4-{2-oxa-6-azaspiro[3.3]heptan-6-yl}cyclohexyl]-1-(2,2,2-trifluoroethyl)-1H-indol-4-amine] | ++ (++ = 0.05 μM ≤ SC150 < 0.1 μM)
COc1cc(C(N)=O)ccc1NCC#Cc1cc2c(N[C@H]3CC[C@H](N4CC5(CCOCC5)C4)CC3)cccc2n1CC(F)(F)F [Compound 331A, 3-methoxy-4-{[3-(4-{[(1R,4R)-4-{7-oxa-2-azaspiro[3.5]nonan-2-yl}cyclohexyl]amino}-1-(2,2,2-trifluoroethyl)-1H-indol-2-yl)prop-2-yn-1-yl]amino}benzamide] | + (+ = 0 μM ≤ SC150 < 0.05 μM)
COc1cc(S(C)(=O)=O)ccc1NCC#Cc1cc2c(NC(=O)Nc3ccncc3)cccc2n1CC(F)(F)F [Compound 11A, 1-(2-(3-((2-methoxy-4-(methylsulfonyl)phenyl)amino)prop-1-yn-1-yl)-1-(2,2,2-trifluoroethyl)-1H-indol-4-yl)-3-(pyridin-4-yl)urea] | ++++ (++++ = 0.2 μM ≤ SC150 < 1 μM)
CCCn1c(C#CCNc2ccc(S(C)(=O)=O)cc2OC)cc2c(N[C@H]3CCN(C[C@@H](O)COC)C[C@H]3F)cccc21 (racemic) [Compound 884A] | + (+ = 0 μM ≤ SC150 < 0.05 μM)
CCC(=O)N1CC[C@H](Nc2cccc3c2cc(C#CCNc2ccc(S(C)(=O)=O)cc2OC)n3CC(F)(F)F)[C@H](F)C1 [Compound 865A, 1-[(3R,4S)-3-fluoro-4-[(2-{3-[(4-methanesulfonyl-2-methoxyphenyl)amino]prop-1-yn-1-yl}-1-(2,2,2-trifluoroethyl)-1H-indol-4-yl)amino]piperidin-1-yl]propan-1-one] | + (+ = 0 μM ≤ SC150 < 0.05 μM)
CCC(=O)OC(C)CN1CCC(Nc2cccc3c2cc(C#CCNc2ccc(S(N)(=O)=O)cc2OC)n3CC(F)(F)F)CC1 (centres unmarked) [Compound 605A, 1-{4-[(2-{3-[(2-methoxy-4-sulfamoylphenyl)amino]prop-1-yn-1-yl}-1-(2,2,2-trifluoroethyl)-1H-indol-4-yl)amino]piperidin-1-yl} propan-2-yl propanoate] | + (+ = 0 μM ≤ SC150 < 0.05 μM)
CNS(=O)(=O)c1ccc(NCC#Cc2cc3c(N[C@H]4CC[C@H](N5CCOCC5)CC4)cccc3n2CC(F)(F)F)c(OC)c1 [Compound 187A, 3-methoxy-N-methyl-4-{[3-(4-{[(1R,4R)-4-(morpholin-4-yl)cyclohexyl]amino}-1-(2,2,2-trifluoroethyl)-1H-indol-2-yl)prop-2-yn-1-yl]amino}benzene-1-sulfonamide] | + (+ = 0 μM ≤ SC150 < 0.05 μM)
COc1cc(C(=O)NC(C)COC(=O)C(C)C)ccc1NCC#Cc1cc2c(N[C@@H]3CCN(C)C[C@@H]3F)cccc2n1CC(F)(F)F (stereo partly drawn) [Compound 972A, 2-[(4-{[3-(4-{[(3S,4R)-3-fluoro-1-methylpiperidin-4-yl]amino}-1-(2,2,2-trifluoroethyl)-1H-indol-2-yl)prop-2-yn-1-yl]amino}-3-methoxyphenyl)formamido]propyl 2-methylpropanoate] | + (+ = 0 μM ≤ SC150 < 0.05 μM)
